Patent US20240166641A1, “HETEROCYCLES AND USES THEREOF” (Kumquat Biosciences Inc., priority 2021, published 2024)

Assays:
[1] = biological target: T1, PTPN2 (Homo sapiens, UniProt P17706); assay: Phosphatase activity assay (Bio-Biochem-DiFMUP), PTPN2; type: biochemical; settings: DiFMUP substrate, room temperature
T1 sequence (P17706 1-415): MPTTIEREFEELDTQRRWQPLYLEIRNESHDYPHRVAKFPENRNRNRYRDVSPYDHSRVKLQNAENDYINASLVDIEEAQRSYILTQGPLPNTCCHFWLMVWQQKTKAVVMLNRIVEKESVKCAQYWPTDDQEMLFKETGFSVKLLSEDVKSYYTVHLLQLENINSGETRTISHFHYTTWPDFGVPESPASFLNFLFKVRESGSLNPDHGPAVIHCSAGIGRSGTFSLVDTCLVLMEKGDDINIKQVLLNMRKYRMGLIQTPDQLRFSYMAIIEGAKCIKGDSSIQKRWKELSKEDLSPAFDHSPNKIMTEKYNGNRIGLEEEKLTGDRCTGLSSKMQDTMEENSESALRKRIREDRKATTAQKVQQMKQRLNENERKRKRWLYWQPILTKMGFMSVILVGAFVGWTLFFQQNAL
From the text: (§1) The selectivity and potency of a small molecule PTPN2 inhibitor as provided herein (e.g., a derivative of Formula I, II, III, IV; or sub-formulae thereof) against one or more protein tyrosine phosphatase (PTP) enzymes, and specifically against PTPN2, can be assessed in various ways. The one or more PTP enzymes comprise Mycobacterium protein tyrosine phosphatase A (mPTPA), Mycobacterium protein tyrosine phosphatase B (mPTPB), PTPN1 (i.e., PTP1B), PTPN2 (i.e., TC-PTP), SHP-1, SHP-2, FAP-1, Meg2, HePTP, Laforin, VHX, VHR, LMWPTP, Cdcl4A, LAR, CD45, PTPRG, a fragment thereof, a variant thereof, and a combination thereof. Selectivity and potency of a small molecule PTPN2 inhibitor is evaluated using a PTP activity inhibition assay. The assay is performed using a buffer comprising 50 millimolar (mM) Bis-Tris (pH=6.3), 2 mM EDTA, and 5 mM N,N′-dimethyl-N,N′-bis(mercaptoacetyl)hydrazine (DMH). The assay is performed using a phosphated substrate, e.g., 10 mM fluorescein diphosphate (FDP) that is stored at −20° C. Alternatively or in addition to, the assay is performed using 10 mM DiFMUP as a phosphated substrate. Each PTP enzyme is diluted in an enzyme dilution buffer comprising 50 mM Bis-Tris (pH=6.3), 2 mM EDTA, 5 mM DMH, 20% (vol./vol.) glycerol, and 0.01% (vol./vol.) Triton X-100.
(§2) The assay is carried out at room temperature in 96 well plates. A reaction mixture of 170 microliter (μL) of the assay buffer comprising 10 μM FDP or DiFMIUP is added to each well. A 10 μL volume of (i) a compound disclosed herein (e.g., PTPN2 inhibitor) dissolved in DMSO at one of 10 concentrations from a serial dilution or (ii) DMSO alone for control is added to each well. The reaction is initiated by adding 20 μL of a PTP enzyme (e.g., PTPN2) that is diluted in the enzyme dilution buffer. The phosphatase activity of the PTP enzyme is assessed by monitoring appearance of a fluorescent product (e.g., fluorescein monophosphate (FMP) from FDP, or 6,8-difluoro-7-hydroxyl-4-coumarin (DiFMU) from DiFMUP) continuously for about 15 to 30 minutes, using the SpectraMax® Gemini™ XPS Microplate Spectrofluorometer (Molecular Devices®) with excitation of 440 nm and emission at 530 nm (cutoff filter at 525 nm) for FMP and excitation at 360 nm and emission at 450 nm (cutoff filter at 435 nm) for DiFMU. The rate (e.g., the initial rate) of FMP or DiFMU formation is plotted against the concentration of the small molecule PTPN2 inhibitor, and the data is fitted (e.g., using a 4-parameter equation) to determine the inflection point of the fit as the IC50 of the small molecule PTPN2 inhibitor for a specific enzyme. Table 6 summarizes the IC50 values of compounds disclosed herein against PTPN2 and PTPN1.

[2] = biological target: T2, PTP1B (Homo sapiens, UniProt P18031); assay: Phosphatase activity assay (Bio-Biochem-DiFMUP), PTP1B; type: biochemical; settings: DiFMUP substrate, room temperature
T2 sequence (P18031 1-435): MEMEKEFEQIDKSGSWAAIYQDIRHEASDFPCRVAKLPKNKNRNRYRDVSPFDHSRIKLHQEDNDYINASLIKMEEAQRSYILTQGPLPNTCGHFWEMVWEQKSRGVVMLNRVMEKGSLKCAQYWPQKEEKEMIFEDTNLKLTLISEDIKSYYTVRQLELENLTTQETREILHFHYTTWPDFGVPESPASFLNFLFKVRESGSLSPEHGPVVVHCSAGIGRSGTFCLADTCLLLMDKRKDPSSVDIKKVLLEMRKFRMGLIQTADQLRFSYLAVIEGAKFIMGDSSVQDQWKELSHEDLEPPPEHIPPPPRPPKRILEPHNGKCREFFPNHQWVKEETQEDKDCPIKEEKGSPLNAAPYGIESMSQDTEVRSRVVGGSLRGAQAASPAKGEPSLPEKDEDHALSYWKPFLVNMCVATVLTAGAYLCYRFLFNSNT
From the text: as §1, §2

[3] = tested on: OT-1 cells; assay: T-cell activation: intracellular production of IFNγ and TNFα in exhausted OT-1 cells; type: cell-based; settings: 10 uM compound, OT-1 cells restimulated with 1 μM OVA, read-out: % TNFa + /IFNg + production in compound-treated cells (uM compound) relative to negative control (DMSO)
Description: 1*10^6 OT-1 cells are seeded in a 24well in a volume of 1 mL of RPMI/10% FCS, and activated with 10 nM OVA protein for 48 h. Cells are then split 1:4 into 96well plates after two washes in warm media. To induce exhaustion, cells are then expanded for 3 days in the presence of vehicle control or a compound described herein (e.g., PTPN2 inhibitor) various concentrations, as well as 5 ng/ml IL-7 and 5 ng/ml IL-15, with the addition of fresh OVA on each day. After this point, cells are treated with Brefeldin A and restimulated with 1 μM of OVA for 4-6h, and cells are stained to assess production of IFNγ and TNFα intracellularly by flow cytometry. The results are shown as increase in percentage production of IFNγ and TNFα in cells treated with an exemplified compound at 10 uM, relative to a negative control (DMSO) of cells without being treated with the compound but merely DMSO (a solvent in which exemplified compounds are dissolved). See Table 10 below summarizes percentage increase in IFNγ and TNFα intracellular production in cells treated with an exemplified compound (at 10 uM) or without it, relative to a negative control (DMSO).

[4] = tested on: B16F10 mouse melanoma cells; assay: MHC expression associated with IFNγ signaling, flow cytometry; type: cell-based; settings: B16-F10, 3 uM compound, 48 hours, normalized to DMSO/with IFNγ control, read-out: % MHC in cells treated with Compound at 3 uM relative to negative control (DMSO)
Description: B16F10 mouse melanoma cells (ATCC Cat #CRL-6475, Manassas, VA) are seeded at approximately a density of 500 cells per well in a 384-well clear bottom plate (Corning Cat #3765, Corning, 5 NY) in 25 μL total volume of DMEM+10% FBS (Sigma Cat #D6429 and Sigma Cat #F4135, St. Louis, MO). Cells are allowed to adhere overnight at 37° C.+5% CO2. On the following day, 12.5 μL of mouse IFNγ (RD systems Cat #485-MI/CF, Minneapolis, MN) is added to half of the plate (columns 13-24) at a concentration of 2 ng/mL for a final assay concentration of 0.5 ng/mL of IFNγ. Media only (12.5 μL of DMEM+10% FBS) is added to the remainder of the 10 plate (columns 1-12). Next, compounds resuspended in DMSO (Sigma Cat #D2650) at 100 mM are diluted in semi-log dilutions in DMSO ranging from 100 mM to 0.001 mM and DMSO only controls are included. The compound/DMSO dilutions are further diluted 1:250 in DMEM+10% FBS, and 12.5 μL of these dilutions are added in triplicates to cells of both treatment arms (with and without IFNγ). Compounds are only dosed in the inner 240 wells, avoiding the outer 2-well perimeter of the plate to minimize edge effects. Finally, the plate is loaded into an IncuCyte® S3 Live Cell Analysis System (Essen Bioscience-Sartorius, Ann Arbor, MI) maintained in a 37° C.+5% CO2 incubator, allowed to equilibrate for 2 hours, and treated for 48 hours. MHC levels are measured by flow cytometry using a FITC anti-mouse H-2kb antibody (clone AF6-88.5), and levels are normalized based on DMSO/with IFNγ control. Table 7 below summarizes the percentage in MHC expression in cells treated with or without compounds disclosed herein at a specified concentration.

SMILES	IC50 [1]	IC50 [2]	activity at 10 µM [3]	activation at 3 µM [4]
CC(C)CCNc1ccc2cc(O)c(N3CC(=O)NS3(=O)=O)cc2n1 [Compound 113, 5-(6-hydroxy-2-(isopentylamino)quinolin-7-yl)-1,2,5-thiadiazolidin-3-one 1,1-dioxide]	≤ 1 µM	≤ 1 µM	210%	
CC(C)CCNc1cc2cc(N3CC(=O)NS3(=O)=O)c(O)cc2n(C)c1=O [Compound 120]	≤ 1 µM	≤ 1 µM	194%	
CC(C)CCNC(=O)c1cc2c(F)c(N3CC(=O)NS3(=O)=O)c(O)cc2s1 [Compound 130, 5-(1,1-dioxido-4-oxo-1,2,5-thiadiazolidin-2-yl)-4-fluoro-6-hydroxy-N-isopentylbenzo[b]thiophene-2-carboxamide]	≤ 1 µM	≤ 1 µM		> 10%
O=C1CN(c2c(O)cc3ccc(OCC4CCOC4)nc3c2F)S(=O)(=O)N1 (centres unmarked) [Compound 139]	≤ 1 µM	≤ 1 µM	226%	> 10%
O=C1CN(c2c(O)cc3ccc(OCC4CCCOC4)nc3c2F)S(=O)(=O)N1 (centres unmarked) [Compound 144]	≤ 1 µM	≤ 1 µM	251%	> 10%
COC(C)(C)CCOc1ccc2cc(O)c(N3CC(=O)NS3(=O)=O)c(F)c2n1 [Compound 149]	≤ 1 µM	≤ 1 µM	207%	> 10%
CC(C)(C)CCOc1ccc2cc(O)c(N3CC(=O)NS3(=O)=O)c(F)c2n1 [Compound 150]	≤ 1 µM	≤ 1 µM	260%	
O=C1CN(c2c(O)cc3ccc(OCCc4ccccc4)nc3c2F)S(=O)(=O)N1 [Compound 151]	≤ 1 µM	≤ 1 µM	227%	1 to 10%
N#CCCCOc1ccc2cc(O)c(N3CC(=O)NS3(=O)=O)c(F)c2n1 [Compound 155]	≤ 1 µM	≤ 1 µM		> 10%
O=C1CN(c2c(O)cc3ccc(OCCC4CCCC4)nc3c2F)S(=O)(=O)N1 [Compound 158]	≤ 1 µM	≤ 1 µM	152%	> 10%
CC(C)(C)CCOc1ccc2cc(O)c(N3CC(=O)NS3(=O)=O)cc2n1 [Compound 183]	≤ 1 µM	≤ 1 µM	162%	< 1%
CC(C)CCNc1cc2c(F)c(N3CC(=O)NS3(=O)=O)c(O)cc2n(C)c1=O [Compound 186]	≤ 1 µM	≤ 1 µM		> 10%
CC(C)CCCc1cc2c(F)c(N3CC(=O)NS3(=O)=O)c(O)cc2n(C)c1=O [Compound 190]	≤ 1 µM	≤ 1 µM		1 to 10%
C[C@H](Nc1cc2cc(N3CC(=O)NS3(=O)=O)c(O)cc2n(C)c1=O)c1ccccc1 [Compound 194]	1 to 10 µM	≤ 1 µM		
CC(C)OCCNc1cc2cc(N3CC(=O)NS3(=O)=O)c(O)cc2n(C)c1=O [Compound 195]	≤ 1 µM	≤ 1 µM		
CC(C)CCn1cnc2cc(O)c(N3CC(=O)NS3(=O)=O)cc2c1=O [Compound 196]	> 10 µM	> 10 µM		
O=C1CN(c2c(O)cc3sc(C(=O)NCCc4ccccc4)cc3c2F)S(=O)(=O)N1 [Compound 198]	≤ 1 µM	≤ 1 µM		
CC(C)CCn1ccc2cc(O)c(N3CC(=O)NS3(=O)=O)cc2c1=O [Compound 199]	> 10 µM	> 10 µM		
Cn1c(=O)c(NCCC2CCC(F)(F)CC2)cc2cc(N3CC(=O)NS3(=O)=O)c(O)cc21 [Compound 201]	≤ 1 µM	≤ 1 µM		
Cn1c(=O)c(NCC2(C#N)CC2)cc2cc(N3CC(=O)NS3(=O)=O)c(O)cc21 [Compound 202]	1 to 10 µM	≤ 1 µM		
CC(C)CCNc1cc2cc(N3C(C)C(=O)NS3(=O)=O)c(O)cc2n(C)c1=O (centres unmarked) [Compound 203]	1 to 10 µM	1 to 10 µM		
O=C1CN(c2c(O)cc3ccc(OCCc4ccc(F)cc4)nc3c2F)S(=O)(=O)N1 [Compound 204, 5-(8-fluoro-2-(4-fluorophenethoxy)-6-hydroxyquinolin-7-yl)-1,2,5-thiadiazolidin-3-one 1,1-dioxide]	≤ 1 µM	≤ 1 µM	430%	1 to 10%
